Experimental findings from PubChem BioAssay (NCI) are described below.

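Grown in 96-well plates, cells were treated for 48 hours with each compound at five concentrations. Insufficient inhibition: endpoint recorded as highest concentration tested. TGI denotes the concentration required for complete inhibition of growth.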

Some test systems named below: A498 renal; OVCAR-3 ovarian; KM12 colon; SF-295 CNS; SN12C renal; RPMI-8226 leukemia; SK-MEL-2 melanoma; SK-MEL-28 melanoma; RXF 393 renal; LOX IMVI melanoma; HL-60(TB) leukemia; EKVX NSCLC; MDA-N; SW-620 colon; HOP-92 NSCLC; TK-10 renal; SK-MEL-5 melanoma; SF-268 CNS.
Experiment in all cases: NCI-60 cell line screen, 48 h

Take `CC(=O)NC1C(OCc2ccccc2)OC(CO)C(O)C1OC(C)C(=O)NC(C(=O)NC(CCC(=O)Nc1ccc2c(c1)CN1C(=O)c3ccccc3C1=N2)C(N)=O)C(C)C` (stereo not given): the TGI in the experiment with A498 renal, with OVCAR-3 ovarian, in the experiment on KM12 colon, with SF-295 CNS, with SN12C renal and in the experiment on RPMI-8226 leukemia was over 100 µM each time. Besides, the TGI in the experiment on SK-MEL-2 melanoma, with SK-MEL-28 melanoma, with RXF 393 renal, in the experiment on LOX IMVI melanoma, in the experiment on HL-60(TB) leukemia and in the experiment with EKVX NSCLC was over 100 µM in each case. The TGI with MDA-N, with SW-620 colon, in the experiment on HOP-92 NSCLC, with TK-10 renal, with SK-MEL-5 melanoma and with SF-268 CNS was over 100 µM each time.
For the molecule `O=C(CCl)Nc1ccc(-c2nc3ccccc3s2)cc1`, the TGI in the experiment on A498 renal was 11.7 µM; in the experiment with OVCAR-3 ovarian, 3.61 µM; in the experiment with KM12 colon, 11 µM; in the experiment on SF-295 CNS it was 15 µM; with SN12C renal, 4.2 µM; in the experiment on RPMI-8226 leukemia, 5.34 µM. In addition, the TGI stood at 8.37 µM in the experiment with SK-MEL-2 melanoma; 9.66 µM in the experiment with SK-MEL-28 melanoma; 7.67 µM with RXF 393 renal; 2.31 µM in the experiment on LOX IMVI melanoma; 5.73 µM with HL-60(TB) leukemia; 17.1 µM in the experiment with EKVX NSCLC. Further, the TGI in the experiment on MDA-N stood at 7.89 µM; in the experiment with SW-620 colon, 5.07 µM; in the experiment on HOP-92 NSCLC it was 6.08 µM; with TK-10 renal, 22.6 µM; in the experiment on SK-MEL-5 melanoma, 3.17 µM; in the experiment with SF-268 CNS, 8.44 µM.
As for `OCC1OC(NC(=S)NCSCCC(F)(F)C(F)(F)C(F)(F)C(F)(F)C(F)(F)C(F)(F)F)C(O)C(O)C1O` (stereo not given), the TGI is 12.6 µM in the experiment with A498 renal; over 100 µM with OVCAR-3 ovarian; over 100 µM in the experiment with KM12 colon; 60.5 µM in the experiment on SF-295 CNS; over 100 µM with SN12C renal; over 100 µM in the experiment with RPMI-8226 leukemia. For the same molecule, the TGI in the experiment on SK-MEL-2 melanoma, in the experiment with SK-MEL-28 melanoma, with RXF 393 renal, in the experiment with LOX IMVI melanoma, in the experiment with HL-60(TB) leukemia and in the experiment on MDA-N was over 100 µM throughout. For the same molecule, the TGI was over 100 µM in the experiment with SW-620 colon, 66.4 µM in the experiment with HOP-92 NSCLC, over 100 µM in the experiment on TK-10 renal and over 100 µM with SF-268 CNS.
Consider `Nc1nc(Cl)c(N)c(NCC2(CO)CC(O)C2)n1` (stereo not given), for which the TGI with A498 renal, in the experiment on OVCAR-3 ovarian, with KM12 colon, in the experiment with SF-295 CNS, in the experiment with SN12C renal and in the experiment on RPMI-8226 leukemia was over 100 µM in each case. Further, the TGI in the experiment with SK-MEL-2 melanoma, in the experiment with SK-MEL-28 melanoma, in the experiment on RXF 393 renal, with LOX IMVI melanoma, in the experiment on HL-60(TB) leukemia and in the experiment with EKVX NSCLC was over 100 µM throughout. Also, the TGI in the experiment with MDA-N, in the experiment on SW-620 colon, with HOP-92 NSCLC, in the experiment with TK-10 renal, in the experiment with SK-MEL-5 melanoma and in the experiment with SF-268 CNS was over 100 µM in each case.
Consider `CC1(C)O[C@@H]([C@@H](O)[C@H](O)C2SCCCS2)[C@@H](CO)O1`, for which the TGI in the experiment on A498 renal, with OVCAR-3 ovarian, in the experiment on KM12 colon, with SF-295 CNS, in the experiment on SN12C renal and with RPMI-8226 leukemia was over 100 µM in each case. Besides, the TGI in the experiment on SK-MEL-2 melanoma, with SK-MEL-28 melanoma, in the experiment with RXF 393 renal, in the experiment with LOX IMVI melanoma, with HL-60(TB) leukemia and with EKVX NSCLC was over 100 µM throughout. Moreover, the TGI in the experiment on MDA-N, in the experiment on SW-620 colon, in the experiment with HOP-92 NSCLC, in the experiment with TK-10 renal, in the experiment with SK-MEL-5 melanoma and in the experiment on SF-268 CNS was over 100 µM each time.
As for `O=C1NC(c2ccccc2)C1N(Cc1ccccc1)Cc1ccccc1` (stereo not given), the TGI in the experiment on A498 renal, with OVCAR-3 ovarian, in the experiment on KM12 colon, in the experiment with SF-295 CNS, with SN12C renal and with RPMI-8226 leukemia was over 100 µM in each case. The TGI in the experiment on SK-MEL-2 melanoma, with SK-MEL-28 melanoma, in the experiment on RXF 393 renal, with LOX IMVI melanoma, in the experiment with HL-60(TB) leukemia and with EKVX NSCLC was over 100 µM each time. The TGI with MDA-N, with SW-620 colon, in the experiment on HOP-92 NSCLC, in the experiment on TK-10 renal, in the experiment on SK-MEL-5 melanoma and in the experiment with SF-268 CNS was over 100 µM in each case.
Take `CCOC(=O)c1cc(NC(=O)c2ccccc2)c(=O)n2c(cc3c(Cl)cccc32)c1O`: the TGI in the experiment on A498 renal, with OVCAR-3 ovarian, in the experiment on KM12 colon, in the experiment on SF-295 CNS, in the experiment on SN12C renal and with RPMI-8226 leukemia was over 100 µM each time. The TGI in the experiment on SK-MEL-2 melanoma, in the experiment on SK-MEL-28 melanoma, in the experiment on RXF 393 renal, in the experiment on LOX IMVI melanoma, in the experiment with HL-60(TB) leukemia and in the experiment on EKVX NSCLC was over 100 µM each time. In addition, the TGI in the experiment with MDA-N, in the experiment with SW-620 colon, with HOP-92 NSCLC, in the experiment with TK-10 renal, in the experiment on SK-MEL-5 melanoma and with SF-268 CNS was over 100 µM each time.
Turning to `COC(=O)[C@@H](COC(=O)/C=C/c1ccc(OC(C)=O)c(OC(C)=O)c1)NC(=O)/C=C/c1ccc(OC(C)=O)c(OC(C)=O)c1`, the TGI with A498 renal is over 100 µM; in the experiment with OVCAR-3 ovarian, 50 µM; with KM12 colon it was 94.6 µM; in the experiment on SN12C renal, 46.7 µM; with RPMI-8226 leukemia, over 100 µM; with SK-MEL-2 melanoma, 55.4 µM. Moreover, the TGI was over 100 µM in the experiment on SK-MEL-28 melanoma; over 100 µM in the experiment with RXF 393 renal; 38.1 µM in the experiment with LOX IMVI melanoma; over 100 µM with HL-60(TB) leukemia; 71.5 µM in the experiment on EKVX NSCLC; 50.3 µM in the experiment with MDA-N. Besides, the TGI was over 100 µM with SW-620 colon, over 100 µM in the experiment with HOP-92 NSCLC, 30 µM with SK-MEL-5 melanoma and over 100 µM with SF-268 CNS.
